Source: ChEMBL document CHEMBL1800035, “An optimized immunoaffinity fluorescent method for natural product target elucidation” (J Nat Prod, 2010)
Calls of active or inactive are those of the source. No cut-off for these calls is given here.

Assays:
[1] = target: T1, Protein kinase C eta type (Homo sapiens, UniProt P24723); assay: Binding affinity to PKCeta in human HeLa cell lysates at 10 nM to 100 uM after 2 hrs by immunoprecipitation analysis
HeLa [2] = assay: Drug uptake in human HeLa cells assessed as subcellular localization in endoplasmic reticulum at 10 uM after 6 hrs using blue-fluorescent IAF-tagged streptavidin staining by live cell microscopic analysis; type: ADME, cell-based
[3] = target: T1, Protein kinase C eta type; assay: Binding affinity to recombinant human PKCeta in after 2 hrs by microequilibrium dialysis assay
HeLa [4] = assay: Drug uptake in human HeLa cells assessed as subcellular localization in endoplasmic reticulum at 25 uM after 6 hrs by live cell microscopic analysis; type: ADME, cell-based
HeLa [5] = assay: Drug uptake in human HeLa cells assessed as subcellular localization in endoplasmic reticulum at 10 uM after 6 hrs using blue-fluorescent IAF-tagged streptavidin staining by live cell microscopic analysis presence of glycyrrhetic acid; type: ADME, cell-based
[6] = Binding affinity to mouse IAF-labeled immunoglobulin G mAb by immunoaffinity fluorescent method

T1 sequence (P24723 whole entry): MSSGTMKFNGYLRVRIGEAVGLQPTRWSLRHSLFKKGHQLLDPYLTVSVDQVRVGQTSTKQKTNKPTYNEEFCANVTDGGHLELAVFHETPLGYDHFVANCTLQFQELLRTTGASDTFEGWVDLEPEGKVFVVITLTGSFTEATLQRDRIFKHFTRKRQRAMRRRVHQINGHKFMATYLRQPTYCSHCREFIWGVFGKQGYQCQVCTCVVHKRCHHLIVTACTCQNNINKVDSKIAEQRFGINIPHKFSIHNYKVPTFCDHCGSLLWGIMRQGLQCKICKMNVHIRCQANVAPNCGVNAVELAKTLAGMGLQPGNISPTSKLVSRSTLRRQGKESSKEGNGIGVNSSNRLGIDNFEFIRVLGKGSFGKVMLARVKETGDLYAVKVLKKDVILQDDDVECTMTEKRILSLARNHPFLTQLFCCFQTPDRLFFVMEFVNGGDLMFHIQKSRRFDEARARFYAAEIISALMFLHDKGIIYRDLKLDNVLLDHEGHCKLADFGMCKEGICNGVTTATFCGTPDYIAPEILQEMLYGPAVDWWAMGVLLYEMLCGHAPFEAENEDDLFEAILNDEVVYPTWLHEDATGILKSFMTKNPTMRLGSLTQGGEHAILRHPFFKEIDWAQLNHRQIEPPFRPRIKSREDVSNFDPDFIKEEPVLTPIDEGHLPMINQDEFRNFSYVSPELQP

Activity [1]	Drug uptake (HeLa [2])	Kd [3]	SMILES	other results
inactive			C#CCNC(=O)Cc1cc(=O)oc2cc(N(C)C)ccc12	
	Not Active		CC1(C)[C@@H](O)CC[C@]2(C)[C@H]3C(=O)C=C4[C@@H]5C[C@@](C)(C(=O)NCCNC(=O)CCCC[C@@H]6SC[C@@H]7NC(=O)N[C@@H]76)CC[C@]5(C)CC[C@@]4(C)[C@]3(C)CC[C@@H]12	
		250 nM	CC1(C)[C@@H](O)CC[C@]2(C)[C@H]3C(=O)C=C4[C@@H]5C[C@@](C)(C(=O)O)CC[C@]5(C)CC[C@@]4(C)[C@]3(C)CC[C@@H]12 [ENOXOLONE]	Drug uptake (HeLa [4]): Active
	Active	640 nM	CN(C)c1ccc2c(CC(=O)NCCNC(=O)[C@@]3(C)CC[C@]4(C)CC[C@]5(C)C(=CC(=O)[C@@H]6[C@@]7(C)CC[C@H](O)C(C)(C)[C@@H]7CC[C@]65C)[C@@H]4C3)cc(=O)oc2c1	Drug uptake (HeLa [5]): Not Active; Kd [6]: 540 nM
inactive			CC1(C)[C@@H](O)CC[C@]2(C)[C@H]3C(=O)C=C4[C@@H]5C[C@@](C)(C(=O)NCCN=[N+]=[N-])CC[C@]5(C)CC[C@@]4(C)[C@]3(C)CC[C@@H]12	
